From patent US8481459B2, “Chemical inhibitors of ethylene biosynthesis” (Academia Sinica, priority 2010, dated 2013)

System: gene expression in etiolated eto1-4 seedlings
Test: Transcriptional profiling (ATH1 GeneChip microarray) of etiolated eto1-4 seedlings
Assay type: in vivo, Arabidopsis thaliana
Method: For chemical treatments, seeds were sown on 0.5×MS agar medium supplemented with 10 μM chemicals (AVG, compounds 9393, 9370, and 7303) or DMSO (as control). Arabidopsis seeds were stratified in the dark at 4° C. for 4 days, then germinated in the dark for 3 days at 22° C. Approximately 2,000 etiolated seedlings of the wild type or eto1-4 were used to collect tissues for preparation of total RNA in each microarray experiment with Arabidopsis ATH1 GeneChip (Affymetrix). Extraction of RNA followed an established protocol (Chang, et al. (1993) Plant Mol. Biol. Rep. 11, 113-117). Total RNA (10 μg) was used to prepare biotinylated cRNA for hybridization to ATH1 GeneChip in the experiments disclosed herein. Experiments were repeated by 2 independent biological duplicates, and candidate genes present in both experiments were selected for further analysis. The MASS method was used for data analysis and normalization by all sample medium. Candidate genes were selected by the following criteria. First, genes with 1.5-fold differential expression between the wild type and eto1-4 were selected as the master gene pool, which was then used for comparison in treatments with AVG and individual exemplary compounds. Data were presented in hierarchical clustering and Venn diagram format. Agilent GeneSpring GX and Bioconductor software were used to analyze the expression profile data. Gene Ontology descriptions were generated by GeneSpring GX and further referred to the TAR GO database. Raw data are available in the GEO database (http://www.ncbi.nlm.nih.gov/geo) with Accession no. GSE20897.
The filtered and normalized expression data set from 22810 probes on the ATH1 Genechip was used for hierarchical clustering of gene expression profiles for comparison between AVG and the exemplary invention compounds in eto1-4. It was identified that 1,446 genes show at least 1.5-fold difference in expression between the WT and eto1-4 and used them as the master gene pool for clustering analysis (FIG. 7A). […] These genes likely contribute to the etiolated phenotype of eto1-4 by responding to elevated endogenous ethylene. To determine whether the exemplary compounds have specific r overlapping functions with AVG to suppress the eto1-4 phenotype, genes that are regulated by individual exemplary invention compounds and AVG for Venn diagram analysis were clustered (FIG. 7B). More than 63% of genes (356/561 for compound 9393; 389/561 for compound 9370; 399/561 for compound 7303; FIG. 7B) with expression associated with AVG were co-regulated by the exemplary invention compounds, which indicates an overlap function in suppression of the ethylene phenotype in eto1-4. […] Next genes co-regulated by all of the exemplary invention compounds and AVG were examined by performing a clustering analysis using the co-regulated genes identified in FIG. 7B: 356 (compound 9393 vs AVG), 389 (compound 9370 vs AVG) and 399 genes (compound 7303 vs AVG). It was uncovered that 276 genes were co-regulated by all of the exemplary invention compounds and AVG (FIG. 7C and Table 2). On the basis of GO descriptions generated by Gene Spring GX and TAIR database, the 276 genes were divided into subgroups related to their biological functions (Table 2). […] In addition, stress- and pathogenesis-related genes were among the co-regulated genes, possibly because ethylene is involved in both biotic and abiotic stresses.
Genes (1446 non-redundant loci) were selected by 1.5-fold differential expression between eto1-4 and WT as the master pool for analysis. These genes were used for comparison between chemical treatments by AVG and the exemplary invention compounds. The finalized 276 genes that are co-regulated by AVG and all of the exemplary invention compounds are shown. Locus ID also present in Nemhauser et al. (Nemhauser, et al. (2006) Cell 126, 467-475).

[1] = of 1446 genes differentially expressed between WT and eto1-4, 10 μM
[2] = ratio eto1-4 treated to eto1-4 (no treatment)

Structure (SMILES): CC1(C)CC(=O)c2cnc(NC3CCCC3)nc2C1 [Compound 9393]
- number of genes co-regulated with AVG (of 561 genes associated with AVG, 10 μM): 356 genes
- number of genes regulated (expression reverted close to WT) [1]: 629 genes
- percentage of genes regulated (expression reverted close to WT) [1]: 43.5%
- number of genes regulated specifically, not related to AVG treatment (of all genes regulated by the compound (629, 728, 650), 10 μM): 273 genes
- Signal Fold Change AT1G03457, unknown biological function [2]: 2.24
- Signal Fold Change AT1G03660, unknown biological function [2]: 1.84
- Signal Fold Change AT1G05010 ACC oxidase [2]: 0.28
- Signal Fold Change AT1G05760 jacalin lectin protein [2]: 2.69
- Signal Fold Change AT1G06720 expressed protein [2]: 1.15
- Signal Fold Change AT1G07280, unknown biological function [2]: 0.44
- Signal Fold Change AT1G07560 leucine-rich repeat protein kinase [2]: 2.23
- Signal Fold Change AT1G08650 phosphoenolpyruvate carboxylase kinase [2]: 1.96
- Signal Fold Change AT1G08990 glycogenin glucosyltransferase [2]: 1.61
- Signal Fold Change AT1G09530 phytochrome interacting factor 3 [2]: 0.35
- Signal Fold Change AT1G10760 starch excess protein (SEX1) [2]: 0.46
- Signal Fold Change AT1G13430, response to cytokinin stimulus, sulfotransferase protein [2]: 0.38
- Signal Fold Change AT1G14540 anionic peroxidase [2]: 0.46
- Signal Fold Change AT1G15380 lactoylglutathione lyase [2]: 1.96
- Signal Fold Change AT1G17970, unknown biological function [2]: 2.17
- Signal Fold Change AT1G18880 proton-dependent oligopeptide transport (POT) protein [2]: 2.00
- Signal Fold Change AT1G20190, cell wall organization and biogenesis, expansin (EXP11) [2]: 0.43
- Signal Fold Change AT1G22740 Ras-related protein (RAB7) [2]: 2.34
- Signal Fold Change AT1G23060, unknown biological function [2]: 0.40
- Signal Fold Change AT1G26930, unknown biological function [2]: 0.50
- Signal Fold Change AT1G27380 p21-rho-binding domain-containing protein [2]: 2.10
- Signal Fold Change AT1G29520, unknown biological function [2]: 1.83
- Signal Fold Change AT1G30750, unknown biological function [2]: 2.23
- Signal Fold Change AT1G31710 copper amine oxidase [2]: 3.17
- Signal Fold Change AT1G32410 vacuolar protein sorting 55 protein [2]: 1.62
- Signal Fold Change AT1G32560 late embryogenesis abundant group 1 domain-containing protein [2]: 1.35
- Signal Fold Change AT1G33470, unknown biological function [2]: 2.32
- Signal Fold Change AT1G33790, unknown biological function [2]: 0.20
- Signal Fold Change AT1G34040, unknown biological function [2]: 1.69
- Signal Fold Change AT1G35350, unknown biological function [2]: 3.85
- Signal Fold Change AT1G35612, unknown biological function [2]: 3.38
- Signal Fold Change AT1G42470, unknown biological function [2]: 4.11
- Signal Fold Change AT1G44800, unknown biological function [2]: 1.86
- Signal Fold Change AT1G44830 AP2-containing transcription factor [2]: 0.34
- Signal Fold Change AT1G48480 leucine-rich repeat trans-membrane protein kinase [2]: 2.65
- Signal Fold Change AT1G49660 expressed protein [2]: 0.38
- Signal Fold Change AT1G50560 cytochrome P450 [2]: 1.77
- Signal Fold Change AT1G52830 auxin-responsive protein [2]: 3.44
- Signal Fold Change AT1G56010 transcription activator NAC1 [2]: 2.29
- Signal Fold Change AT1G56020, unknown biological function [2]: 0.60
- Signal Fold Change AT1G58070, unknown biological function [2]: 2.13
- Signal Fold Change AT1G59590, unknown biological function [2]: 2.57
- Signal Fold Change AT1G59740 proton-dependent oligopeptide transport (POT) protein [2]: 0.46
- Signal Fold Change AT1G62290 aspartyl protease protein [2]: 0.32
- Signal Fold Change AT1G62510 lipid transfer protein [2]: 1.63
- Signal Fold Change AT1G62620, unknown biological function [2]: 2.65
- Signal Fold Change AT1G64200 V-ATPase E subunit [2]: 2.10
- Signal Fold Change AT1G65510, unknown biological function [2]: 2.13
- Signal Fold Change AT1G65920, unknown biological function [2]: 0.37
- Signal Fold Change AT1G66230 myb transcription factor (MYB20) [2]: 3.04
- Signal Fold Change AT1G67030 zinc finger (C2H2 type) protein [2]: 6.01
- Signal Fold Change AT1G68230, unknown biological function [2]: 2.42
- Signal Fold Change AT1G68520 zinc finger (B-box type) protein [2]: 2.45
- Signal Fold Change AT1G69570 Dof-type zinc finger-containing protein [2]: 3.88
- Signal Fold Change AT1G70210 cyclin delta-1 [2]: 3.05
- Signal Fold Change AT1G70850 Bet v I allergen protein [2]: 7.24
- Signal Fold Change AT1G70890 major latex protein [2]: 5.37
- Signal Fold Change AT1G71030 myb transcription factor (MYB2) [2]: 4.86
- Signal Fold Change AT1G71740, unknown biological function [2]: 2.19
- Signal Fold Change AT1G72230 plastocyanin like protein [2]: 2.45
- Signal Fold Change AT1G73220 sugar transporter protein [2]: 2.95
- Signal Fold Change AT1G73300 serine carboxypeptidase S10 protein [2]: 1.94
- Signal Fold Change AT1G73310 serine carboxypeptidase S10 protein [2]: 2.66
- Signal Fold Change AT1G73330 protease inhibitor [2]: 2.84
- Signal Fold Change AT1G73590 auxin efflux carrier protein [2]: 2.02
- Signal Fold Change AT1G73640, small GTPase mediated signal transduction, Ras-related GTP-binding protein [2]: 1.94
- Signal Fold Change AT1G73830 bHLH protein [2]: 0.28
- Signal Fold Change AT1G75500, unknown biological function [2]: 3.12
- Signal Fold Change AT1G76220, unknown biological function [2]: 3.40
- Signal Fold Change AT1G76500, photomorphogenesis, DNA-binding protein [2]: 0.39
- Signal Fold Change AT1G76540 cell division control protein [2]: 2.16
- Signal Fold Change AT1G76790, unknown biological function [2]: 2.90
- Signal Fold Change AT1G78240 dehydration-responsive protein [2]: 0.49
- Signal Fold Change AT1G80380 phosphoribulokinase [2]: 2.17
- Signal Fold Change AT2G01910, microtubule nucleation, microtubule associated protein (MAP65/ASE1) protein [2]: 2.21
- Signal Fold Change AT2G02820 myb transcription factor (MYB88) [2]: 3.34
- Signal Fold Change AT2G02850 plantacyanin [2]: 0.27
- Signal Fold Change AT2G16580 auxin-responsive protein [2]: 2.33
- Signal Fold Change AT2G16990, unknown biological function [2]: 2.49
- Signal Fold Change AT2G19590 ACC oxidase [2]: 0.29
- Signal Fold Change AT2G19970, unknown biological function [2]: 2.19
- Signal Fold Change AT2G20080, unknown biological function [2]: 4.77
- Signal Fold Change AT2G20670, unknown biological function [2]: 2.36
- Signal Fold Change AT2G21820, unknown biological function [2]: 1.08
- Signal Fold Change AT2G21880 Ras-related GTP-binding protein [2]: 3.83
- Signal Fold Change AT2G22860 phytosulfokines 2 (PSK2) [2]: 2.20
- Signal Fold Change AT2G24150 expressed protein (response to hormone stimulus) [2]: 2.23
- Signal Fold Change AT2G25900 zinc finger (CCCH-type) protein [2]: 1.27
- Signal Fold Change AT2G26070 expressed protein (response to ethylene stimulus) [2]: 0.32
- Signal Fold Change AT2G26440 pectinesterase protein [2]: 0.36
- Signal Fold Change AT2G26740 epoxide hydrolase [2]: 0.29
- Signal Fold Change AT2G27140 heat shock protein [2]: 2.32
- Signal Fold Change AT2G27370, unknown biological function [2]: 1.90
- Signal Fold Change AT2G28305, unknown biological function [2]: 2.70
- Signal Fold Change AT2G28410, unknown biological function [2]: 2.86
- Signal Fold Change AT2G29340 short-chain dehydrogenase [2]: 0.47
- Signal Fold Change AT2G29440, toxin catabolic process, glutathione S-transferase [2]: 0.31
- Signal Fold Change AT2G30360 CBL-interacting protein kinase 11 (CIPK11) [2]: 1.81
- Signal Fold Change AT2G33380 calcium-binding RD20 protein [2]: 0.26
- Signal Fold Change AT2G33990, unknown biological function [2]: 2.38
- Signal Fold Change AT2G34300, unknown biological function [2]: 0.40
- Signal Fold Change AT2G34500 cytochrome P450 [2]: 3.82
- Signal Fold Change AT2G34510, unknown biological function [2]: 2.66
- Signal Fold Change AT2G34700, unknown biological function [2]: 1.10
- Signal Fold Change AT2G35300 late embryogenesis abundant group 1 domain-containing protein [2]: 1.93
- Signal Fold Change AT2G35710 glycogenin glucosyltransferase [2]: 2.39
- Signal Fold Change AT2G36350 protein kinase [2]: 0.54
- Signal Fold Change AT2G36410, unknown biological function [2]: 2.46
- Signal Fold Change AT2G37130 peroxidase 21 [2]: 1.93
- Signal Fold Change AT2G38760, unknown biological function [2]: 2.89
- Signal Fold Change AT2G38790, unknown biological function [2]: 1.78
- Signal Fold Change AT2G39010 aquaporin [2]: 1.84
- Signal Fold Change AT2G39310, unknown biological function [2]: 1.97
- Signal Fold Change AT2G39980, unknown biological function [2]: 0.14
- Signal Fold Change AT2G40420 amino acid transporter [2]: 1.87
- Signal Fold Change AT2G41090, unknown biological function [2]: 0.26
- Signal Fold Change AT2G41230, unknown biological function [2]: 0.08
- Signal Fold Change AT2G42320, unknown biological function [2]: 0.55
- Signal Fold Change AT2G43050 pectinesterase protein [2]: 2.06
- Signal Fold Change AT2G43535 trypsin inhibitor [2]: 4.42
- Signal Fold Change AT2G44110 seven transmembrane MLO protein [2]: 0.45
- Signal Fold Change AT2G44130 kelch repeat containing F-box protein [2]: 3.36
- Signal Fold Change AT2G47510 fumarate hydratase [2]: 0.53
- Signal Fold Change AT2G47550 pectinesterase protein [2]: 0.39
- Signal Fold Change AT2G48030, unknown biological function [2]: 2.18
- Signal Fold Change AT3G04010 glycosyl hydrolase [2]: 2.09
- Signal Fold Change AT3G05990, signal transduction, phosphodiesterase leucine-rich repeat protein [2]: 2.05
- Signal Fold Change AT3G09020, unknown biological function [2]: 2.36
- Signal Fold Change AT3G09780 protein kinase [2]: 0.55
- Signal Fold Change AT3G10080, unknown biological function [2]: 2.22
- Signal Fold Change AT3G10340 phenylalanine ammonia-lyase [2]: 2.17
- Signal Fold Change AT3G11550, unknown biological function [2]: 2.20
- Signal Fold Change AT3G12030, DNA repair, expressed protein [2]: 1.73
- Signal Fold Change AT3G12500 basic endocexemplary inase [2]: 1.85
- Signal Fold Change AT3G13980, unknown biological function [2]: 6.83
- Signal Fold Change AT3G14370 protein kinase [2]: 0.30
